Experimental findings from patent US20230083885A1, “MODULATORS OF INTEGRATED STRESS RESPONSE PATHWAY” (Praxis Biotech LLC, priority 2021, published 2023) are described below.

For one experiment, the system named is ATF4. Briefly: ATF4 expression inhibition assay (ATF4 5'UTR luciferase reporter, thapsigargin-stressed). In kind it is cell-based. As to conditions: Homo sapiens, HEK-293T; HEK293T cells carrying ATF4 luciferase reporter, 100 nM thapsigargin, 3 hours; read-out: ATF4 inhibition. The protocol: The ATF4 reporter was prepared by fusing the human full length 5′UTR of ATF4 (NCBI Accession No. BC022088.2) upstream of the firefly luciferase coding sequence lacking the initiator methionine. The fused sequence was cloned into pLenti-EF1a-C-Myc-DDK-IRES-Puro cloning vector (Origen #PS100085) using standard methods.
HEK293T cells carrying the ATF4 luciferase reporter were plated on 96-well plates (Nunc) at 10,000 cells per well. Cells were treated two days after seeding with 100 nM thapsigargin (Tg) (Sigma-Aldrich #T9033) in the presence of different concentrations of selected compounds ranging from 0.1 nM to 10 μM. Cells without treatment or cells treated with Tg alone were used as controls. Assay plates containing cells were incubated for 3 hours at 37° C.
Luciferase reactions were performed using Luciferase Assay System (Promega #E1501) as specified by the manufacturer. Luminescence was read with an integration time of 1 s and a gain of 110 using a Cytation-5 multi-mode microplate reader (BioTek).
In general terms: A reporter such as luciferase makes a cellular process visible.

The subject of experiment [1] is Chinese hamster ovary (CHO) cells. Briefly: Protein synthesis assay (puromycin incorporation, Western blot). As to conditions: Cricetulus griseus; unstressed CHO cells (without Tg), 1 μM test compound, 2 hours; media alone = 100%; read-out: % Protein synthesis relative to untreated (1 μM test compound). In kind it is cell-based. The protocol:
Chinese hamster ovary (CHO) cells were maintained at 37° C. and 5% CO2 in Dulbecco's Modified Eagle's Media (DMEM) supplemented with 10% fetal bovine serum, 2 mM L-glutamine, 100 U/ml penicillin, and 100 μg/ml streptomycin. After reaching 80% of confluence, cells were detached and seeded on 6 well plates in complete media, allowed to recover overnight and treated for 2 hours with 1 μM of the test compound (to assess protein synthesis levels in unstressed condition), or for 2 hours with 300 nM Tg in the presence of 1 μM of the test compound (to assess the recovery of protein synthesis in a stressed condition). Cells with Tg alone were used as controls.
After the 2 hours treatments, media were replaced by adding 10 μg/ml puromycin (Sigma Aldrich #P8833) in complete media for 30 min. Media were removed and cells were lysed with SDS-PAGE lysis buffer. Lysates were transferred to 1.5 ml tubes and sonicated for 3 min and total protein amount were quantified using BCA Protein Assay Kit (Pierce). Equal amount of protein (30 μg) was loaded on SDS-PAGE gels.
A HRP-conjugated secondary antibody (Rockland) was employed to detect immune-reactive bands using enhanced chemiluminescence (ECL Western Blotting Substrate, Pierce). Quantification of protein bands was done by densitometry using ImageJ software.
The percentage levels were normalized to the media alone condition, which correspond to 100% protein synthesis. […]

Turning to `O=C(COc1ccc(Cl)c(F)c1)NN1CCC(c2nnc(-c3ccc(Cl)cc3)o2)CC1` [Compound 35, 2-(4-chloro-3-fluorophenoxy)-N-(4-(5-(4-chlorophenyl)-1,3,4-oxadiazol-2-yl)piperidin-1-yl)acetamide], the IC50 in the experiment with ATF4 was less than 10 nM. Further, in experiment [1], the activity at 1 µM was found to be 51.6%.

For the compound `O=C(COc1ccc(Cl)c(F)c1)N[C@H]1CC[C@@H](c2cnn(-c3ccc(Cl)cc3)c2)CC1` [Compound 36, cis-2-(4-chloro-3-fluorophenoxy)-N-(4-(1-(4-chlorophenyl)-1H-pyrazol-4-yl)cyclohexyl)acetamide], the IC50 in the experiment on ATF4 lay in the range of 100 to 1000 nM. Besides, the activity at 1 µM in experiment [1] worked out at 6.4%.

`O=C(COc1ccc(Cl)c(F)c1)N[C@H]1CC[C@H](c2cnn(-c3ccc(Cl)cc3)c2)CC1` [Compound 37, trans-2-(4-chloro-3-fluorophenoxy)-N-(4-(1-(4-chlorophenyl)-1H-pyrazol-4-yl)cyclohexyl)acetamide]: in the experiment with ATF4, the IC50 was less than 10 nM. Further, in experiment [1], the activity at 1 µM came to 24.3%.

In the case of `O=C(COc1ccc(Cl)c(F)c1)N[C@H]1CC[C@H](n2cnc(-c3ccc(Cl)cc3)c2)CC1` [Compound 44, trans-2-(4-chloro-3-fluorophenoxy)-N-(4-(4-(4-chlorophenyl)-1H-imidazol-1-yl)cyclohexyl)acetamide], in the experiment with ATF4, the IC50 is less than 10 nM. Besides, the activity at 1 µM in experiment [1] was 39.5%.

For `O=C(Nc1ccc2cc(Cl)ccc2n1)[C@H]1CC[C@H](c2nnc(C3CNc4cc(Cl)ccc4O3)o2)CC1` (stereo partly drawn) [Compound 45, trans-4-(5-(6-chloro-3,4-dihydro-2H-benzo[b][1,4]oxazin-2-yl)-1,3,4-oxadiazol-2-yl)-N-(6-chloroquinolin-2-yl)cyclohexanecarboxamide], the IC50 in the experiment with ATF4 lay within 10 to 100 nM. Moreover, in experiment [1], the activity at 1 µM was determined as 81.8%.

For the compound `O=C(Nc1ccc2cc(Cl)ccc2n1)[C@H]1CC[C@H](c2nnc(-c3ccc4cc(Cl)ccc4n3)o2)CC1` [Compound 46, trans-N-(6-chloroquinolin-2-yl)-4-(5-(6-chloroquinolin-2-yl)-1,3,4-oxadiazol-2-yl)cyclohexanecarboxamide], in the experiment with ATF4, the IC50 is 10 to 100 nM. Moreover, the activity at 1 µM in experiment [1] came out at 11.8%.

As for `O=C(NCc1ccc2cc(Cl)ccc2n1)[C@H]1CC[C@H](c2nnc(-c3ccc(Cl)cc3)o2)CC1` [Compound 47, trans-4-(5-(4-chlorophenyl)-1,3,4-oxadiazol-2-yl)-N-((6-chloroquinolin-2-yl)methyl)cyclohexanecarboxamide], the IC50 in the experiment on ATF4 is more than 1000 nM. In experiment [1], the activity at 1 µM was 2%.

With `O=C(Nc1ccc2cc(Cl)ccc2n1)[C@H]1CC[C@H](c2nnc([C@H]3C[C@@H](OC(F)(F)F)C3)o2)CC1` [Compound 48, trans-N-(6-chloroquinolin-2-yl)-4-(5-(cis-3-(trifluoromethoxy)cyclobutyl)-1,3,4-oxadiazol-2-yl)cyclohexanecarboxamide], the IC50 in the experiment on ATF4 was 10 to 100 nM. For the same compound, in experiment [1], the activity at 1 µM is 22.4%.

Take `O=C(Nc1ccc2cc(Cl)ccc2n1)[C@H]1CC[C@H](c2nnc(Cc3ccc(Cl)cc3)o2)CC1` [Compound 237, trans-4-(5-(4-chlorobenzyl)-1,3,4-oxadiazol-2-yl)-N-(6-chloroquinolin-2-yl)cyclohexanecarboxamide]: the IC50 in the experiment with ATF4 was 10 to 100 nM. In experiment [1], the activity at 1 µM was determined as 51.3%.

Regarding `O=C(COc1ccc(Cl)c(F)c1)N[C@H]1CC[C@H](c2nnc(Cc3ccc(Cl)cc3)o2)CC1` [Compound 238, 2-(4-chloro-3-fluorophenoxy)-N-(trans-4-(5-(4-chlorobenzyl)-1,3,4-oxadiazol-2-yl)cyclohexyl)acetamide], in the experiment with ATF4, the IC50 is less than 10 nM. Moreover, the activity at 1 µM in experiment [1] was found to be 74.6%.

Turning to `O=C(N[C@H]1CC[C@H](c2nnc(Cc3ccc(Cl)cc3)o2)CC1)c1ccc2cc(Cl)ccc2n1` [Compound 239, 6-chloro-N-(trans-4-(5-(4-chlorobenzyl)-1,3,4-oxadiazol-2-yl)cyclohexyl)quinoline-2-carboxamide], the IC50 in the experiment with ATF4 was less than 10 nM. In experiment [1], the activity at 1 µM amounted to 197%.

With `O=C(COc1ccc(Cl)c(F)c1)NN1CCC(c2nnc(COc3ccc(Cl)cc3)o2)CC1` [Compound 240, 2-(4-chloro-3-fluorophenoxy)-N-(4-(5-((4-chlorophenoxy)methyl)-1,3,4-oxadiazol-2-yl)piperidin-1-yl)acetamide], the IC50 in the experiment with ATF4 was less than 10 nM. Besides, the activity at 1 µM in experiment [1] was found to be 42.3%.

`O=C(COc1ccc(Cl)c(F)c1)NN1CCC(c2nnc([C@H]3C[C@@H](OC(F)(F)F)C3)o2)CC1` [Compound 242, 2-(4-chloro-3-fluorophenoxy)-N-(4-(5-(cis-3-(trifluoromethoxy)cyclobutyl)-1,3,4-oxadiazol-2-yl)piperidin-1-yl)acetamide]: in the experiment on ATF4, the IC50 is less than 10 nM. Moreover, the activity at 1 µM in experiment [1] was 23%.

In the case of `O=C(COc1ccc(Cl)c(F)c1)N[C@H]1CC[C@H](c2nnc([C@H]3C[C@@H](C(F)(F)F)C3)o2)CC1` [Compound 243, trans-2-(4-chloro-3-fluorophenoxy)-N-(4-(5-(cis-3-(trifluoromethyl)cyclobutyl)-1,3,4-oxadiazol-2-yl)cyclohexyl)acetamide], in the experiment on ATF4, the IC50 was in the range of 10 to 100 nM. In experiment [1], the activity at 1 µM was -39.1%.

On to `O=C(COc1ccc(Cl)c(F)c1)N[C@H]1CC[C@H](c2nnc(Cc3ccc(Cl)c(F)c3)o2)CC1` [Compound 244, N-(trans-4-(5-(4-chloro-3-fluorobenzyl)-1,3,4-oxadiazol-2-yl)cyclohexyl)-2-(4-chloro-3-fluorophenoxy)acetamide], for which the IC50 in the experiment on ATF4 was less than 10 nM. Besides, the activity at 1 µM in experiment [1] amounted to 94%.

As to `O=C(N[C@H]1CC[C@H](c2nnc(Cc3ccc(Cl)cc3)o2)CC1)c1cc2cc(Cl)ccc2o1` [Compound 247, trans-5-chloro-N-(4-(5-(4-chlorobenzyl)-1,3,4-oxadiazol-2-yl)cyclohexyl)benzofuran-2-carboxamide], in the experiment with ATF4, the IC50 is less than 10 nM. Also, the activity at 1 µM in experiment [1] turned out to be 278%.

Consider `O=C(Nc1ccc2cc(Cl)ccc2n1)[C@H]1CC[C@H](c2cnn(-c3ccc(Cl)cc3)c2)CC1` [Compound 250, trans-4-(1-(4-chlorophenyl)-1H-pyrazol-4-yl)-N-(6-chloroquinolin-2-yl)cyclohexanecarboxamide], for which, in the experiment on ATF4, the IC50 is 10 to 100 nM. The activity at 1 µM in experiment [1] was 25%.
